In one series the test system is SK-MEL-2. The series is described as follows: NCI-60 growth inhibition, SK-MEL-2. Format: cell-based, human. The text has this: (§1) The anticancer effects of compounds 1a-1b against 60 human cancer cell lines (the Developmental Therapeutics Program of NCI) were studied. The cell lines were derived from different cancer types including leukemia, non-small-cell lung cancer, colon cancer, CNS cancer, melanoma, ovarian cancer, renal cancer, prostate cancer, and breast cancer (Table 1; the assay protocol can be found at: https://dtp.cancer.gov/default.htm). Compound 1a caused over 50% growth inhibition for most tested cell lines. […] Without wishing to be bound by any particular theory, it is believed that the differences in the anticancer effects between compounds 1a and 1b may be due to the more favorable cell membrane permeability of the boronic ester 1a.

The subject of the next series is HOP-92. The series can be described thus: NCI-60 growth inhibition, HOP-92. Format: cell-based, human.
From the text: as §1

The next series has as its system HCT-116. The series can be described thus: NCI-60 growth inhibition, HCT-116. The series is classed as cell-based, human.
From the text: as §1

The test system of a further series is PC-3. The series can be described thus: NCI-60 growth inhibition, PC-3. The series is classed as cell-based, human.
From the text: as §1

A further series deals with MOLT-4. The series is described as follows: NCI-60 growth inhibition, MOLT-4. The series is classed as cell-based, human.
From the text: as §1

A further series has as its system T-47D. The series is described as follows: NCI-60 growth inhibition, T-47D. The series is classed as cell-based, human. The following applies: Breast Cancer T-47D, 48 h.
From the text: as §1

The next series deals with RXF 393. The series can be described thus: NCI-60 growth inhibition, RXF 393. The series is classed as cell-based, human.
From the text: as §1

The next series deals with SN12C. The series is described as follows: NCI-60 growth inhibition, SN12C. The following applies: Renal Cancer SN12C, 48 h. The series is classed as cell-based, human.
From the text: as §1

Another series concerns SW-620. The series is described as follows: NCI-60 growth inhibition, SW-620. The series is classed as cell-based, human.
From the text: as §1

The test system of a further series is NCI-H522. The series is described as follows: NCI-60 growth inhibition, NCI-H522. The series is classed as cell-based, human.
From the text: as §1

The next series deals with HCT-15. The series can be described thus: NCI-60 growth inhibition, HCT-15. The series is classed as cell-based, human.
From the text: as §1

For another series, the system named is HT29. The series can be described thus: NCI-60 growth inhibition, HT29. The series is classed as cell-based, human.
From the text: as §1

Series [1] can be described thus: 5-FU release study with H2O2 (LC/MS). Format: physicochemical. Particulars: for activation by H2O2 to release 5-FU: prodrug 100 μM, H2O2 5 equiv, 30% DMSO in PBS, 37° C., RP-UPLC-MS. The protocol: FIGS. 1A and 1B illustrate the release of 5-FU from compounds 1a-1b. Incubation of prodrugs 1a-1b (100 μM) was carried out in the presence of 5 equivalent of H2O2: (FIG. 1A) compound 1a and (FIG. 1B) compound 1b. The conversion of prodrugs 1a-1b and release of 5-FU was monitored. The data represent mean±SD of triplicates.
Release of 5-FU from the prodrugs was performed at 37° C. in 30% DMSO/Phosphate Buffered saline (PBS). The compounds were co-incubated at 100 μM together with hydrogen peroxide (H2O2) in triplicates. At each time point, aliquots were taken from the solution and diluted in acetonitrile for quantitation in the LC/MS. LC/MS Analysis: samples were analyzed using Xevo TQ-XS Triple Quadrupole Mass Spectrometry (Waters Corp, Milford, Mass.). The column used was a Cortecs C18+2.7 μm 2.1×75 mm column. A 3-min gradient elution with 0.5 mL/min flow rate was used for the samples. Running gradient: 95% mobile phase A over 1.2 min, 95% mobile phase B over 1.2 min, and 95% A 0.6 min, with elution at 1.64 min for the compounds. The ion transitions monitored for the compounds were 5-FU (129.0>40.1) 1a (345.2>86.0), and 1b (263.1>176.1).
Compounds 1a-1b were incubated in a mixture of DMSO in PBS (30%) with the addition of H2O2 (5 equiv) at 37° C. The conversion of prodrugs 1a-1b and the production of 5-FU were followed using RP-UPLC-MS.

The next series has as its system HS 578T. The series is described as follows: NCI-60 growth inhibition, HS 578T. The series is classed as cell-based, human. Particulars: Breast Cancer HS 578T, 48 h.
From the text: as §1

The subject of a further series is caspase 3. The series can be described thus: Western blot of caspase 3 in MCF7 cells. The series is classed as cell-based, human. The following applies: 48 h; for expression level of caspase 3: compared to vehicle-treated cells; for level of cleavage of caspase 3: compared to vehicle-treated controls. The method, then:
FIGS. 4A and 4B illustrate the effect of compounds 1a-1b in apoptosis. FIG. 4A: immunofluorescence of DNA cleavage protein γH2Ax was enhanced by using 5-FU and prodrugs 1a-1b. FIG. 4B: immunoblot analysis of MCF-7 cells treated with 5-FU, prodrugs 1a-1b for apoptosis markers PARP1 and Caspase 3. The cells were treated for 48 h with the indicated concentrations of compounds.
Western Blot Analysis. Treated cells were washed once with PBS and lysed with RIPA lysis buffer (Santa Cruz Biotechnology, SCBT, #24948) supplemented with sodium orthovanadate, PMSF, protease and phosphatase inhibitor cocktails (Sigma Aldrich). Cell lysates were centrifuge for 15 min at 14,000×g and the supernatant was used for immunoblotting. Protein concentration was normalized for the samples and resolved on a 10-13% SDS-PAGE gel. Following transfer to nitrocellulose membrane, specific mouse primary antibodies from SCBT (PARP1 #sc-8007, caspase 3 #sc-7272) and Cell Signaling (cleaved PARP1 #9541, cleaved caspase-3 #9664) were added and incubated overnight. Secondary antibodies corresponding to the host of the primary antibodies was further incubated with the membrane and washed three times to remove excess antibodies. Odyssey Fc Imaging System (LI-COR, Lincoln, Nebr.) was used to quantify the chemiluminescent of the proteins.
To understand the mechanism of action of prodrugs 1a-1b, the impact of the treatment of compounds 1a-1b on the γH2AX formation in MCF7 cells were determined using immunofluorescence assay (FIG. 4A). […] The effects of prodrugs 1a-1b on the PARP1 and caspase 3 cleavage in MCF7 cells were also determined using Western blots assays (FIG. 4B). […] Treatment of 5-FU and compounds 1a-1b increased the levels of cleavage of PARP1 and caspase 3 in MCF7 cells, as compared with that in the vehicle-treated controls. Therefore, prodrugs 1a-1b, similar to 5-FU, can induce MCF7 cell apoptosis, which might contribute to their pharmacological actions.
Background: A western blot detects proteins with antibodies after separation by electrophoresis.

For a further series, the system named is SF-295. The series can be described thus: NCI-60 growth inhibition, SF-295. The series is classed as cell-based, human.
From the text: as §1

For a further series, the system named is SNB-75. The series can be described thus: NCI-60 growth inhibition, SNB-75. Format: cell-based, human.
From the text: as §1

In the case of `CC1(C)OB(c2ccc(Cn3cc(F)c(=O)[nH]c3=O)cc2)OC1(C)C` [Compound 1a, 5-Fluoro-1-(4-(4,4,5,5-tetramethyl-1,3,2-dioxaborolan-2-yl)benzyl)pyrimidine-2,4(1H,3H)-dione], the inhibition at 50 µM in the series with SK-MEL-2 (Homo sapiens, Melanoma SK-MEL-2, 48 h) was found to be 59%; in the series on HOP-92 (Homo sapiens, Non-Small Cell lung Cancer HOP-92, 48 h), 67%; in the series on HCT-116 (Homo sapiens, Colon Cancer HCT-116, 48 h), 71%; in the series on PC-3 (Homo sapiens, Prostate Cancer PC-3, 48 h) it was 45%; with MOLT-4 (Homo sapiens, Leukemia MOLT-4, 48 h), 45%; in the series with T-47D (Homo sapiens, T47D), 51%. The inhibition at 50 µM was 40% with RXF 393 (Homo sapiens, Renal Cancer RXF 393, 48 h); 19% in the series on SN12C (Homo sapiens); 66% in the series on SW-620 (Homo sapiens, Colon Cancer SW-620, 48 h); 90% with NCI-H522 (Homo sapiens, Non-Small Cell lung Cancer NCI-H522, 48 h); 32% with HCT-15 (Homo sapiens, Colon Cancer HCT-15, 48 h); 76% with HT29 (Homo sapiens, HT-29, Colon Cancer HT29, 48 h). The inhibition at 50 µM was 63% in the series on HS 578T (Homo sapiens); 14% with SF-295 (Homo sapiens, CNS Cancer SF-295, 48 h); 62% with SNB-75 (Homo sapiens, CNS Cancer SNB-75, 48 h). In series [1], the “activation by H2O2 to release 5-FU” value is “activated efficiently”. In addition, the “hydrolysis of boronic ester to boronic acid 1b” value in series [1] (under the release assay conditions (30% DMSO in PBS, H2O2 5 equiv, 37° C.)) was “hydrolyzes rapidly”. The “expression level of caspase 3” value in the series with caspase 3 was “significantly reduced”. In addition, the “level of cleavage of caspase 3” value in the series with caspase 3 was “increased”.

For the compound `O=c1[nH]c(=O)n(Cc2ccc(B(O)O)cc2)cc1F` [Compound 1b, (4-((5-Fluoro-2,4-dioxo-3,4-dihydropyrimidin-I(2H)-yl)methyl)phenyl)boronic acid], the “Growth Inhibition (%)” value came to 7% in the series on SK-MEL-2 (Melanoma SK-MEL-2, 50 μM, 48 h); 35% with HOP-92 (Non-Small Cell lung Cancer HOP-92, 50 μM, 48 h); 18% in the series on HCT-116 (Colon Cancer HCT-116, 50 μM, 48 h); 14% in the series with PC-3 (Prostate Cancer PC-3, 50 μM, 48 h); 5% in the series on MOLT-4 (Leukemia MOLT-4, 50 μM, 48 h); 5% in the series on T-47D (50 μM). Also, the “Growth Inhibition (%)” value was determined as 17% in the series on RXF 393 (Renal Cancer RXF 393, 50 μM, 48 h); 7% in the series with SN12C (50 μM); 17% with SW-620 (Colon Cancer SW-620, 50 μM, 48 h); 44% with NCI-H522 (Non-Small Cell lung Cancer NCI-H522, 50 μM, 48 h); 10% in the series with HCT-15 (Colon Cancer HCT-15, 50 μM, 48 h); 12% with HT29 (Colon Cancer HT29, 50 μM, 48 h). The “Growth Inhibition (%)” value in the series with HS 578T (50 μM) stood at 26%; with SF-295 (CNS Cancer SF-295, 50 μM, 48 h) it was 5%; with SNB-75 (CNS Cancer SNB-75, 50 μM, 48 h), 15%. Moreover, the “activation by H2O2 to release 5-FU” value in series [1] is reported as “activated efficiently”. In addition, the “expression level of caspase 3” value in the series with caspase 3 is “significantly reduced”. For the same compound, the “level of cleavage of caspase 3” value in the series on caspase 3 is given as “increased”.

By inhibition is commonly meant the drop in the measured response relative to a control, in per cent. High values mean a strong effect, low ones a weak effect.

For the origin of these results see patent US20220041627A1, “PRODRUGS OF ANTI-CANCER AND ANTI-AUTOIMMUNE DISEASES THERAPEUTIC AGENTS, AND METHODS OF MAKING AND USE THEREOF” (UNIVERSITY OF MARYLAND, BALTIMORE, priority 2018, published 2022).
